Laboratory results published in patent publication US11685744B2, “CDK inhibitors and their use as pharmaceuticals” (Prelude Therapeutics, Incorporated, priority 2020, dated 2023).

Assays:
[1] = Brain-to-plasma ratio (Kp) determination in Sprague-Dawley rats; settings: male, rat, po, 10 mg/kg
Protocol: The brain-to-plasma ratio (Kp) was determined in male Sprague-Dawley rats (7-9 weeks old) four hours after a single oral dose. Rats were acclimated and given free access to standard rodent chow and water throughout the entire study. Test articles were formulated as a solution at 0.3, 0.4, 0.5, or 1.0 mg/mL in a vehicle comprised of 10:15:75 (v:v:v) dimethylacetamide (DMA):Solutol HS15:water and delivered orally at a rate of 10 mL/kg to three rats to achieve final doses of 3, 4, 5, or 10 mg/kg, respectively. At 4 hours post-dose, blood samples were collected via jugular vein cannula into tubes containing K2EDTA as the anticoagulant and stored on ice. Blood samples were then centrifuged at 4° C. at 6000 rpm for 5 minutes, and the resulting plasma was placed into tubes and stored frozen at −80° C. until analysis. Whole brain samples were also collected at 4 hours post-dose. The weight of each brain was measured and recorded, and samples were immediately stored on dry ice. Brain samples were then transferred to storage at −80° C. until analysis.
Prior to analysis, brain samples were combined with water (4 mL/1 gram of brain) and homogenized. Prior to injection, plasma and brain homogenate samples and standards were prepared for analysis by precipitation with acetonitrile or 1:1 (v:v) methanol:acetonitrile. Samples were then thoroughly mixed, centrifuged at 4000 rpm for 15 minutes, and the resulting supernatant was transferred for analysis. Test article concentrations in plasma and brain homogenate were then determined by LC-MS/MS and quantified against calibration standards prepared to known concentrations in matched blank (analyte-free) biological matrix. The Kp was then determined by dividing the dilution-corrected brain concentration by the plasma concentration from each rat. A brain density of 1 gram/mL was assumed for all calculations.

CDK4/Cyclin D1 = CDK4/Cyclin D1 (Homo sapiens (Human), UniProt P11802); test: CDK4/CyclinD1 enzymatic activity assay (TR-FRET); type: biochemical; settings: ATP 2 mM, read-out: CDK4_D1 IC50
In short: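 Insect-cell CDK4/Cyclin D1 (1 nM) with ULight-4E-BP1 (100 nM) and 2 mM ATP in HEPES pH 7.4 buffer, preincubated 20 min with compound (9-dose, 3-fold dilutions); 10 mM MgCl2 started the reaction, run 60 min at 37 °C. EDTA/Eu-anti-phospho-4E-BP1 TR-FRET detection; IC50 from 4-parameter Hill fit.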

CDK6/Cyclin D1 = CDK6/Cyclin D1 (Homo sapiens (Human), UniProt Q00534); test: CDK6/CyclinD1 enzymatic activity assay (TR-FRET); type: biochemical; settings: ATP 250 μM, read-out: CDK6_D1 IC50
Chain of CDK6/Cyclin D1 (Q00534 whole entry): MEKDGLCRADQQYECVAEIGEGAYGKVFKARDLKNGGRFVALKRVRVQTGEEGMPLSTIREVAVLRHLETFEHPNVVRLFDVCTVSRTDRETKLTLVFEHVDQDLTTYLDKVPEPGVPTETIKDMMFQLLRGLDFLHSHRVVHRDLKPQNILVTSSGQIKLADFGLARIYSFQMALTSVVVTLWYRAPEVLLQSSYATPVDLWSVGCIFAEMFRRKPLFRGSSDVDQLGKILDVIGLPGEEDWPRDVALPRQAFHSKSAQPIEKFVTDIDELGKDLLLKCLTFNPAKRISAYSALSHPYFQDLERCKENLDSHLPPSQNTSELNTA
Chain of CDK6/Cyclin D1 (P24385 whole entry partner): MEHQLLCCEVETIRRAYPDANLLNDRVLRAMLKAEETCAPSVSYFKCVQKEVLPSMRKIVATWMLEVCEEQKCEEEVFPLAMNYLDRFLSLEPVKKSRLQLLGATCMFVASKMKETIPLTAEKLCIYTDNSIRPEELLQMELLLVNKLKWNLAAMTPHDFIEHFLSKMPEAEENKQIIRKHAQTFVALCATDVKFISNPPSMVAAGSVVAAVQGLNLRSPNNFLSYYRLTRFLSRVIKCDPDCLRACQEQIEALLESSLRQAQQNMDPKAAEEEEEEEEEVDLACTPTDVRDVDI
In short: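 Insect-cell-expressed CDK6/Cyclin D1 (1 nM) phosphorylated ULight-4E-BP1 (100 nM) with 250 μM ATP in HEPES pH 7.4 buffer. After 20 min compound preincubation, reactions were started with 10 mM MgCl2 and run 60 min at 37 °C. EDTA-quenched samples were read by TR-FRET with Eu-anti-P-4E-BP1; IC50 from 9-dose 4-parameter fits.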

[2] = tested on: MCF7 adenocarcinoma cell line; test: Cell proliferation studies in MCF7 cells (ATP-Lite, 10 days); type: cell-based; settings: Homo sapiens, 240 h, read-out: PROLIFERATION_CTG_MCF7 IC50
In short: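 Cells were seeded at 100 or 200 per well in DMEM with 10% FBS and dosed in quadruplicate over a 9-point 3-fold dilution. Incubation lasted 10 days at 37 °C, with media exchange and re-dosing on day 5. Viability was read by ATP-Lite luminescence and normalised to background and DMSO, giving IC50.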

[3] = brain (homogenate) versus plasma

Chain of CDK4/Cyclin D1 (P11802 whole entry): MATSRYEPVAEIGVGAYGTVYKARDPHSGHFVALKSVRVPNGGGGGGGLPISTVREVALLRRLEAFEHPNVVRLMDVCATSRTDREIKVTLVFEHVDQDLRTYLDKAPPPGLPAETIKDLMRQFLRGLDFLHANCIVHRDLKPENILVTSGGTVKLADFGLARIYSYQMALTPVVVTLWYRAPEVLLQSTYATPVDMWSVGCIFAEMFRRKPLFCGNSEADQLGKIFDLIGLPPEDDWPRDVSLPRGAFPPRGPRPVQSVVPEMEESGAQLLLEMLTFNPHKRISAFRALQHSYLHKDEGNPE
Chain of CDK4/Cyclin D1 (P24385 whole entry partner): as the sequence (P24385 whole entry partner) above

| Structure (SMILES) | Kp at 4 h [1, 3] | IC50 (CDK4/Cyclin D1) | IC50 (CDK6/Cyclin D1) | IC50 [2] | Kp at 4 h ([1]; brain / plasma) |
| --- | --- | --- | --- | --- | --- |
| CC(C)c1cn(C)c(=O)c2cc(-c3nc(Nc4ccc(C5CCN(C)CC5)cn4)ncc3F)sc12 [Example 86, 2-(5-Fluoro-2-((5-(1-methylpiperidin-4-yl)pyridin-2-yl)amino)pyrimidin-4-yl)-7-isopropyl-5-methylthieno[3,2-c]pyridin-4(5H)-one] | 1 to 3 | ≤ 20 nM | 20 to 200 nM | 20 to 200 nM |  |
| Cc1c(-c2nc(Nc3ccc(N4CCC5(CC4)CN(C)C5)cn3)ncc2F)sc2c(C(C)C)cn(C)c(=O)c12 [Example 91, 2-(5-Fluoro-2-((5-(2-methyl-2,7-diazaspiro[3.5]nonan-7-yl)pyridin-2-yl)amino)pyrimidin-4-yl)-7-isopropyl-3,5-dimethylthieno[3,2-c]pyridin-4(5H)-one] | < 1 | ≤ 20 nM | ≤ 20 nM | 20 to 200 nM |  |
| Cc1cnc(Nc2ccc(C3CCN(C)CC3)cn2)nc1-c1cc2c(=O)n(C)cc(C(C)C)c2s1 [Example 97, 7-Isopropyl-5-methyl-2-(5-methyl-2-((5-(1-methylpiperidin-4-yl)pyridin-2-yl)amino)pyrimidin-4-yl)thieno[3,2-c]pyridin-4(5H)-one] | < 1 | ≤ 20 nM | ≤ 20 nM | ≤ 20 nM |  |
| CC(C)c1c2sc(-c3nc(Nc4ccc(C5CCN(C)CC5)cn4)ncc3F)cc2nn1C [Example 99, 5-Fluoro-4-(3-isopropyl-2-methyl-2H-thieno[3,2-c]pyrazol-5-yl)-N-(5-(1-methylpiperidin-4-yl)pyridin-2-yl)pyrimidin-2-amine] | > 3 | ≤ 20 nM | 20 to 200 nM | 20 to 200 nM |  |
| CCN1CCN(c2ccc(Nc3ncc(F)c(-c4sc5c(C(C)(O)C(F)(F)F)n(C)nc5c4C)n3)nc2)CC1 (stereo not drawn) [Example 102, 2-(5-(2-((5-(4-Ethylpiperazin-1-yl)pyridin-2-yl)amino)-5-fluoropyrimidin-4-yl)-2,6-dimethyl-2H-thieno[3,2-c]pyrazol-3-yl)-1,1,1-trifluoropropan-2-ol] | 1 to 3 | ≤ 20 nM | ≤ 20 nM | 20 to 200 nM |  |
| CCN1CC2(CC(c3ccc(Nc4ncc(F)c(-c5cc6nc(C)n(C(C)C)c6s5)n4)nc3)C2)C1 [Example 112, N-(5-(2-Ethyl-2-azaspiro[3.3]heptan-6-yl)pyridin-2-yl)-5-fluoro-4-(3-isopropyl-2-methyl-3H-thieno[2,3-d]imidazol-5-yl)pyrimidin-2-amine] | < 1 | ≤ 20 nM | 20 to 200 nM | 20 to 200 nM |  |
| Cc1nc2cc(-c3nc(Nc4ccc(OC5CCN(C)C5)cn4)ncc3F)sc2n1C(C)C (stereo not drawn) [Example 114, 5-Fluoro-4-(2-methyl-3-propan-2-ylthieno[2,3-d]imidazol-5-yl)-N-[5-(1-methylpyrrolidin-3-yl)oxypyridin-2-yl]pyrimidin-2-amine] |  | ≤ 20 nM | 20 to 200 nM | 20 to 200 nM | 1 to 3 |
| Cc1nc2cc(-c3nc(Nc4ccc(C5CCN(C)CC5)cn4)ncc3C(F)(F)F)sc2n1C(C)C [Example 120, 4-(3-Isopropyl-2-methyl-3H-thieno[2,3-d]imidazol-5-yl)-N-(5-(1-methylpiperidin-4-yl)pyridin-2-yl)-5-(trifluoromethyl)pyrimidin-2-amine] | 1 to 3 | ≤ 20 nM | ≤ 20 nM | 20 to 200 nM |  |
| Cc1c(-c2nc(Nc3ccc(C4CCN(C)CC4)cn3)ncc2F)sc2c(C(C)C)cncc12 [Example 123, 5-Fluoro-N-[5-(1-methylpiperidin-4-yl)pyridin-2-yl]-4-(3-methyl-7-propan-2-ylthieno[3,2-c]pyridin-2-yl)pyrimidin-2-amine] | > 3 | ≤ 20 nM | 20 to 200 nM | 20 to 200 nM |  |
| CCN1CCN(Cc2ccc(Nc3ncc(F)c(-c4sc5c(ncn5C(C)C)c4C)n3)nc2)CC1 [Example 124, N-[5-[(4-Ethylpiperazin-1-yl)methyl]pyridin-2-yl]-5-fluoro-4-(6-methyl-3-propan-2-ylthieno[2,3-d]imidazol-5-yl)pyrimidin-2-amine] | 1 to 3 | ≤ 20 nM | ≤ 20 nM | 20 to 200 nM |  |
| CCN1CCC(c2ccc(Nc3ncc(F)c(-c4sc5c(ncn5C(C)C)c4C)n3)nc2)CC1 [Example 128, N-(5-(1-Ethylpiperidin-4-yl)pyridin-2-yl)-5-fluoro-4-(3-isopropyl-6-methyl-3H-thieno[2,3-d]imidazol-5-yl)pyrimidin-2-amine] | 1 to 3 | ≤ 20 nM | ≤ 20 nM | ≤ 20 nM |  |

Second part, the molecule after the results:

| Kp at 4 h [1, 3] | IC50 (CDK4/Cyclin D1) | IC50 (CDK6/Cyclin D1) | IC50 [2] | Kp at 4 h ([1]; brain / plasma) | Structure (SMILES) |
| --- | --- | --- | --- | --- | --- |
| 1 to 3 | ≤ 20 nM | ≤ 20 nM | 20 to 200 nM |  | Cc1c(-c2nc(Nc3ccc(N4C[C@H]5CN(C)C[C@H]5C4)cn3)ncc2F)sc2c(C(C)C)cn(C)c(=O)c12 [Example 78, 2-(5-Fluoro-2-((5-((3aR,6aS)-5-methylhexahydropyrrolo[3,4-c]pyrrol-2(1H)-yl)pyridin-2-yl)amino)pyrimidin-4-yl)-7-isopropyl-3,5-dimethylthieno[3,2-c]pyridin-4(5H)-one] |
| < 1 | ≤ 20 nM | ≤ 20 nM | 20 to 200 nM |  | Cc1c(-c2nc(Nc3ccc(N4C[C@@H]5CN(C)C[C@H]5C4)cn3)ncc2F)sc2c(C(C)C)cn(C)c(=O)c12 [Example 79, 2-(5-Fluoro-2-((5-((3aS,6aS)-5-methylhexahydropyrrolo[3,4-c]pyrrol-2(1H)-yl)pyridin-2-yl)amino)pyrimidin-4-yl)-7-isopropyl-3,5-dimethylthieno[3,2-c]pyridin-4(5H)-one] |
| > 3 | ≤ 20 nM | ≤ 20 nM | 20 to 200 nM |  | [2H]C([2H])([2H])N1CCC(c2ccc(Nc3ncc(F)c(-c4sc5c(C(C)C)cn(C)c(=O)c5c4C)n3)nc2)CC1 [Example 82, 2-(5-Fluoro-2-((5-(1-(methyl-d3)piperidin-4-yl)pyridin-2-yl)amino)pyrimidin-4-yl)-7-isopropyl-3,5-dimethylthieno[3,2-c]pyridin-4(5H)-one] |
| 1 to 3 | ≤ 20 nM | ≤ 20 nM | 20 to 200 nM |  | Cc1c(-c2nc(Nc3ccc(C4CCN(C5CCOC5)CC4)cn3)ncc2F)sc2c(C(C)C)cn(C)c(=O)c12 (stereo not drawn) [Example 84, 2-(5-Fluoro-2-((5-(1-(tetrahydrofuran-3-yl)piperidin-4-yl)pyridin-2-yl)amino)pyrimidin-4-yl)-7-isopropyl-3,5-dimethylthieno[3,2-c]pyridin-4(5H)-one] |
| 1 to 3 | ≤ 20 nM | ≤ 20 nM | 20 to 200 nM |  | CCN1CCC(c2ccc(Nc3ncc(F)c(-c4sc5c(C(C)C)cn(C)c(=O)c5c4C)n3)nc2)CC1 [Example 87, 2-(2-((5-(1-Ethylpiperidin-4-yl)pyridin-2-yl)amino)-5-fluoropyrimidin-4-yl)-7-isopropyl-3,5-dimethylthieno[3,2-c]pyridin-4(5H)-one] |
| 1 to 3 | ≤ 20 nM | 20 to 200 nM | 20 to 200 nM |  | Cc1c(-c2nc(Nc3ccc(C4CCCN(C)C4)cn3)ncc2F)sc2c(C(C)C)cn(C)c(=O)c12 (stereo not drawn) [Example 88, 2-(5-Fluoro-2-((5-(1-methylpiperidin-3-yl)pyridin-2-yl)amino)pyrimidin-4-yl)-7-isopropyl-3,5-dimethylthieno[3,2-c]pyridin-4(5H)-one] |
| > 3 | ≤ 20 nM | ≤ 20 nM | 20 to 200 nM |  | Cc1c(-c2nc(Nc3ccc(N4CCN(C(C)C)CC4)cn3)ncc2F)sc2c(C(C)C)cn(C)c(=O)c12 [Example 89, 2-(5-Fluoro-2-((5-(4-isopropylpiperazin-1-yl)pyridin-2-yl)amino)pyrimidin-4-yl)-7-isopropyl-3,5-dimethylthieno[3,2-c]pyridin-4(5H)-one] |
| < 1 | ≤ 20 nM | 20 to 200 nM | 20 to 200 nM |  | CCN1CCN(Cc2ccc(Nc3ncc(F)c(-c4sc5c(C(C)C)cn(C)c(=O)c5c4C)n3)nc2)CC1 [Example 90, 2-(2-((5-((4-Ethylpiperazin-1-yl)methyl)pyridin-2-yl)amino)-5-fluoropyrimidin-4-yl)-7-isopropyl-3,5-dimethylthieno[3,2-c]pyridin-4(5H)-one] |
| < 1 | ≤ 20 nM | 20 to 200 nM | 20 to 200 nM |  | Cc1c(-c2nc(Nc3ccc(C4CCN(C)CC4)nn3)ncc2F)sc2c(C(C)C)cn(C)c(=O)c12 [Example 93, 2-(5-Fluoro-2-((6-(1-methylpiperidin-4-yl)pyridazin-3-yl)amino)pyrimidin-4-yl)-7-isopropyl-3,5-dimethylthieno[3,2-c]pyridin-4(5H)-one] |
| 1 to 3 | ≤ 20 nM | 20 to 200 nM | 20 to 200 nM |  | Cc1c(-c2nc(Nc3ccc(C4CCN(C(C)C)C4)cn3)ncc2F)sc2c(C(C)C)cn(C)c(=O)c12 (stereo not drawn) [Example 95, 2-(5-Fluoro-2-((5-(1-isopropylpyrrolidin-3-yl)pyridin-2-yl)amino)pyrimidin-4-yl)-7-isopropyl-3,5-dimethylthieno[3,2-c]pyridin-4(5H)-one] |
